Test system: Bacteria, moulds and yeasts
Test: Efficacy of Antimicrobial Preservatives in Pharmaceutical Products (British Pharmacopoeia 1988), overall outcome
Type: cell-based
Conditions: specification of British Pharmacopoeia 1988
Excerpt: The test procedure conformed with the specifications described in the 1988 British Pharmacopoeia--"Efficacy of Antimicrobial Preservatives in Pharmaceutical Products".
Aliquots of microbial suspensions of Pseudomonas aeruoinosa NC18 8626, Stahylococcus aureus NCTC 10788, Candida albicans NCPF 3179, and Asperoillus niger IMI 149007 were introduced into separate containers of the composition of Example 1 to achieve a final concentration of approximately 1×10^6 cfu/ml. The same volume of inoculum was simultaneously introduced into separate equivalent quantities of 0.1% peptone water to be used as controls. The inoculated product was stored in the dark at 20°-25° C.
1 ml aliquots of the inoculated product were removed at 0, 6, 24 and 48 hours, 7, 14 and 28 days. Each was added to 9 ml of 0.1% peptone water containing the following as preservative inactivating agents:
A topical preparation is considered to be effectively preserved if the following criteria are met:
Bacteria--the number of organisms recovered per ml is reduced by a factor of not less than 10^3 within 48 hours of challenge and no organism is recovered from 1 ml at 7 days and thereafter;
Moulds and Yeasts--the number of organisms recovered per ml is reduced by a factor of not less than 10^2 within 14 days of challenge and there is no increase thereafter.

`O=[N+]([O-])C(Br)(CO)CO` [bronopol, 2-bromo-2-nitropropane-1,3,-diol] was tested, and the “Antimicrobial protection / antimicrobial properties of the shampoo” value was “good antimicrobial protection”.

From patent publication US5112515A, “Phenothrin shampoo” (Euroceltique, S.A., priority 1990, dated 1992)
